In general, Ki refers to a dissociation constant, usually derived from enzyme kinetics or from competition with a known ligand.

We go through eight molecules from US8097637B2, “Benzoyl-piperidine derivatives as dual modulators of the 5-HT2A and D3 receptors” (Hoffmann-La Roche Inc., priority 2007, dated 2012).

Structures are written as SMILES.

Test [1] deals with T1, human 5-HT2A serotonin receptor (Homo sapiens, UniProt P28223).
T1 construct: expressed in transfected cells; host or cells: HEK-293 EBNA cells, transient transfection; membrane preparation
T1 sequence (P28223 whole entry): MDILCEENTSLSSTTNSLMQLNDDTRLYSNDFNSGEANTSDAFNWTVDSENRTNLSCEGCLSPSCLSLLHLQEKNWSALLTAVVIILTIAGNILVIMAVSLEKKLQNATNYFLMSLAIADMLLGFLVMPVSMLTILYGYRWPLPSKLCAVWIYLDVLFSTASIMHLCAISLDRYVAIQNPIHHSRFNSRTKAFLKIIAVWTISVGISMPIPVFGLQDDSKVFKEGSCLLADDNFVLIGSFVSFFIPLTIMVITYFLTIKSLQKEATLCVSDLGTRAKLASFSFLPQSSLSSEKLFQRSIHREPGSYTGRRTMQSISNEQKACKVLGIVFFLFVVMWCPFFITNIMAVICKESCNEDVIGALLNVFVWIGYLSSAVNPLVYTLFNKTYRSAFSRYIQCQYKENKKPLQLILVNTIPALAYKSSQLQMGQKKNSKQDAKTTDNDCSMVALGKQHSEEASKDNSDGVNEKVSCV
Put plainly: Radioligand binding ([3H]-ketanserin) to cloned human 5-HT2A receptor, HEK-293 EBNA cell membranes. As to conditions: 1.1 nM [3H]-ketanserin, 1 h at RT, Cheng-Prusoff. The protocol: (§1) Membrane Preparation for Human D2, Human D3 and Human 5-HT2A Receptors
(§2) The cells were harvested 48 h post-transfection, washed three times with cold PBS and stored at −80° C. prior to use. The pellet was suspended in cold 50 mM Tris-HCl buffer containing 10 mM EDTA (pH 7.4) and homogenized with a Polytron (Kinematica AG, Basel, Switzerland) for 20-30 sec at 12.000 rpm. After centrifugation at 48.000×g for 30 min at 4° C., the pellet was resuspended in cold 10 mM Tris-HCl buffer containing 0.1 mM EDTA (pH 7.4), homogenized, and centrifuged as above. This pellet was further resuspended in a smaller volume of ice cold 10 mM Tris-HCl buffer containing 0.1 mM EDTA (pH 7.4) and homogenized with a Polytron for 20-30 sec at 12.000 rpm. The protein content of this homogenate was determined with the Bio-Rad (Bradford) Protein Assay (Biorad Laboratories GmbH, München, Germany) according to the instructions of the manufacturer using gamma globulin as the standard. This homogenate was stored at −80° C. in aliquots and thawed immediately prior to use.
(§3) Radioligand Binding Assay Conditions
(§4) Aliquots of membrane preparations were thawed at RT, resuspended in assay buffer (D2, D3: 50 mM Tris-HCl, 120 mM NaCl, 5 mM MgCl2, 1 mM EDTA, 5 mM KCl, 1.5 mM CaCl2, pH=7.4; 5-HT2A: 50 mM Tris-HCl, 10 mM MgCl2, 1 mM EGTA, pH=7.4), homogenized with a Polytron for 20-30 sec at 12.000 rpm and adjusted to a final concentration of approximately 7.5 μg protein/well (D2, D3) and 15 μg protein/well (5-HT2A), respectively.
The binding affinity (Ki) of the compounds was determined using radioligand binding. […] The nonspecific binding was determined with equally composed reaction mixtures in the presence of 10 μM unlabeled spiperone. Per well 45 μl of Microscint 40 (Perkin Elmer, Schwerzenbach, Switzerland) was added, plates for sealed, shaken for 20 min and counted for 3 min on a Topcount Microplate Scintillation Counter (Canberra Packard SA, Zürich, Switzerland) with quenching correction.
(§5) The CPM value for each duplicate of a concentration of competing compound was averaged (yl), then the % specific binding was calculated according to the equation (((yl-non-specific)/(total binding-non-specific))×100). Graphs were plotted with the % specific binding using XLfit, a curve fitting program that iteratively plots the data using Levenburg Marquardt algorithm. The single site competition analysis equation used was y=A+((B−A)/(1+((x/C)^D))), where y is the % specific binding, A is the minimum y, B is the maximum y, C is the IC50, x is the log10 of the concentration of the competing compound and D is the slope of the curve (the Hill Coefficient). […] The affinity constant (Ki) was calculated using the Cheng-Prusoff equation Ki=(IC50/1+([L]/Kd), where [L] is the concentration of radioligand and Kd is the dissociation constant of the radioligand at the receptor as determined by the saturation isotherm.

The target in test [2] is T2, human D3 dopamine receptor (Homo sapiens, UniProt P35462).
T2 construct: expressed in transfected cells; host or cells: HEK-293 EBNA cells, transient transfection; membrane preparation
T2 sequence (P35462 whole entry): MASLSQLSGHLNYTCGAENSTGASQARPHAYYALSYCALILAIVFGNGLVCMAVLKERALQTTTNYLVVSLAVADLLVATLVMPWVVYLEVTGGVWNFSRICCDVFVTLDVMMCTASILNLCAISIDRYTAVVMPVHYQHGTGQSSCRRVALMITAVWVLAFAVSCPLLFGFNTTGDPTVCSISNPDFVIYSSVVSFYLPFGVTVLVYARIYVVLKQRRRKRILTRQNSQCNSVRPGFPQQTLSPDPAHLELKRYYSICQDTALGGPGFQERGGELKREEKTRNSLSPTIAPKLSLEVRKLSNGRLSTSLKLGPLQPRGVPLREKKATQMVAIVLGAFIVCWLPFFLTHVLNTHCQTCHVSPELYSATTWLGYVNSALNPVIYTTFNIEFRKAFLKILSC
Kind of test: Radioligand binding ([3H]-spiperone) to cloned human D3 receptor, HEK-293 EBNA cell membranes. As to conditions: 0.5 nM [3H]-spiperone, 1 h at RT, Cheng-Prusoff. The protocol: The ability of the compounds to bind to the 5-HT2A, D3 and D2 receptors was determined using radioligand binding to cloned receptors selectively expressed in HEK-293 EBNA cells.
as §1
as §2, with “HEK-293 EBNA cells were transiently transfected with expression plasmids encoding for the human D2 or D3 dopamine- or for the human 5-HT2A serotonin receptor, respectively. The cells” for “The cells”
as §3, §4
(§6) The binding affinity (Ki) of the compounds was determined using radioligand binding. Membranes were incubated in a total volume of 200 μl with a fixed concentration of radioligand (final concentration approximately 0.7 nM [^3H]-spiperone for D2, 0.5 nM [^3H]-spiperone for D3, and 1.1 nM [^3H]-ketanserin for 5-HT2A) and ten concentrations of test compound in ranging between 10 μM-0.1 nM for 1 h at RT. At the end of the incubation, the reaction mixtures were filtered on to unifilter 96-well white microplates with bonded GF/C filters (Packard BioScience, Zürich, Switzerland; preincubated for 1 h in 0.1% polyethylenimine (PEI) in assay buffer) with a Filtermate 196 harvester (Packard BioScience) and washed 3 times with cold assay buffer. The nonspecific binding was determined with equally composed reaction mixtures in the presence of 10 μM unlabeled spiperone. Per well 45 μl of Microscint 40 (Perkin Elmer, Schwerzenbach, Switzerland) was added, plates for sealed, shaken for 20 min and counted for 3 min on a Topcount Microplate Scintillation Counter (Canberra Packard SA, Zürich, Switzerland) with quenching correction.
as §5

In test [3] the target is T3, human D2 dopamine receptor (Homo sapiens, UniProt P14416).
T3 construct: expressed in transfected cells; host or cells: HEK-293 EBNA cells, transient transfection; membrane preparation
T3 sequence (P14416 whole entry): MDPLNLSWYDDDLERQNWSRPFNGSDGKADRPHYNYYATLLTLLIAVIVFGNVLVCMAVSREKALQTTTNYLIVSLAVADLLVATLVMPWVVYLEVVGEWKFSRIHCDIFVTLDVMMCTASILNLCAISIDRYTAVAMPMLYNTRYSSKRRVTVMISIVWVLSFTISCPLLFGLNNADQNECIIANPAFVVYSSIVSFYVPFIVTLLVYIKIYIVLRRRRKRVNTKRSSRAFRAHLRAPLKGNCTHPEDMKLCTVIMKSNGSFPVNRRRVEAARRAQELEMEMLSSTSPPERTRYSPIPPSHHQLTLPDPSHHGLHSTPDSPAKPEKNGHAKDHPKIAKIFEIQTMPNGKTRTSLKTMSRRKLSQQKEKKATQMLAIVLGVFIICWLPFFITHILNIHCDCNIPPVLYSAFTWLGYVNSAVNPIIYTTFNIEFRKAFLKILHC
Kind of test: Radioligand binding ([3H]-spiperone) to cloned human D2 receptor, HEK-293 EBNA cell membranes. As to conditions: 0.7 nM [3H]-spiperone, 1 h at RT, Cheng-Prusoff. The protocol:
as §1
as §2, with “HEK-293 EBNA cells were transiently transfected with expression plasmids encoding for the human D2 or D3 dopamine- or for the human 5-HT2A serotonin receptor, respectively. The cells” for “The cells”
as §3, §4, §6, §5

In the case of `CO[C@@H]1CC[C@H](CC(=O)N[C@H]2CC[C@H](CCN3CCC(C(=O)c4ccc(F)cc4)CC3)CC2)C1` (single isomer, unassigned) [Example 10, N-trans (4-{2-[4-(4-Fluoro-benzoyl)-piperidin-1-yl]-ethyl}-cyclohexyl)-2-((1S,3R)-3-methoxy-cyclopentyl)-acetamide or N-trans (4-{2-[4-(4-fluoro-benzoyl)-piperidin-1-yl]-ethyl}-cyclohexyl)-2-((1R,3S)-3-methoxy-cyclopentyl)-acetamide], the Ki was 5 nM in test [1] and 56 nM in test [2].
In the case of `CO[C@@H]1CC[C@H](CC(=O)N[C@H]2CC[C@H](CCN3CCC(C(=O)c4ccc(F)cc4)CC3)CC2)C1` (racemic) [Example 9, rac-N-trans (4-{2-[4-(4-Fluoro-benzoyl)-piperidin-1-yl]-ethyl}-cyclohexyl)-2-cis (3-methoxy-cyclopentyl)-acetamide], the results for the Ki in test [1] and in test [2] were 6 nM and 42 nM, respectively.
The matching figures for `CO[C@H]1CC[C@H](CC(=O)N[C@H]2CC[C@H](CCN3CCC(C(=O)c4ccc(F)cc4)CC3)CC2)C1` (racemic) [Example 8, rac-N-trans(4-{2-[4-(4-Fluoro-benzoyl)-piperidin-1-yl]-ethyl}-cyclohexyl)-2-trans (3-methoxy-cyclopentyl)-acetamide]: 16 nM and 23 nM.
Regarding `CO[C@H]1CC[C@H](CC(=O)N[C@H]2CC[C@H](CCN3CCC(C(=O)c4ccc(F)cc4)CC3)CC2)CC1` [Example 3, N-trans (4-{2-[4-(4-Fluoro-benzoyl)-piperidin-1-yl]-ethyl}-cyclohexyl)-2-trans (4-methoxy-cyclohexyl)-acetamide], the inhibition constant Ki in test [1] was determined as 6 nM; in test [3] it was 1280 nM; in test [2], 24 nM.
Take `CO[C@@H]1CCC[C@H](CC(=O)N[C@H]2CC[C@H](CCN3CCC(C(=O)c4ccc(F)cc4)CC3)CC2)C1` (racemic) [Example 5, rac-N-trans (4-{2-[4-(4-Fluoro-benzoyl)-piperidin-1-yl]-ethyl}-cyclohexyl)-2-cis (3-methoxy-cyclohexyl)-acetamide]: the Ki in test [1] stood at 19 nM; in test [3], 1190 nM; in test [2] it was 45 nM.
Regarding `CO[C@H]1CC[C@H](CC(=O)N[C@H]2CC[C@H](CCN3CCC(C(=O)c4ccc(F)cc4)CC3)CC2)C1` (single isomer, unassigned) [Example 14, N-trans (4-{2-[4-(4-Fluoro-benzoyl)-piperidin-1-yl]-ethyl}-cyclohexyl)-2-((1S,3S)-3-methoxy-cyclopentyl)-acetamide or N-trans (4-{2-[4-(4-fluoro-benzoyl)-piperidin-1-yl]-ethyl}-cyclohexyl)-2-((1R,3R)-3-methoxy-cyclopentyl)-acetamide], the values for the Ki in test [1] and in test [2] were 7 nM and 18 nM, respectively.
`CO[C@@H]1CC[C@@H](CC(=O)N[C@H]2CC[C@H](CCN3CCC(C(=O)c4ccc(F)cc4)CC3)CC2)C1` (single isomer, unassigned) [Example 15, N-trans (4-{2-[4-(4-Fluoro-benzoyl)-piperidin-1-yl]-ethyl}-cyclohexyl)-2-((1R,3R)-3-methoxy-cyclopentyl)-acetamide or N-trans (4-{2-[4-(4-fluoro-benzoyl)-piperidin-1-yl]-ethyl}-cyclohexyl)-2-((1S,3S)-3-methoxy-cyclopentyl)-acetamide]: the Ki was 16 nM in test [1] and 34 nM in test [2].
In the case of `CO[C@H]1CC[C@@H](CC(=O)N[C@H]2CC[C@H](CCN3CCC(C(=O)c4ccc(F)cc4)CC3)CC2)C1` (single isomer, unassigned) [Example 11, N-trans (4-{2-[4-(4-Fluoro-benzoyl)-piperidin-1-yl]-ethyl}-cyclohexyl)-2-((1R,3S)-3-methoxy-cyclopentyl)-acetamide or N-trans (4-{2-[4-(4-fluoro-benzoyl)-piperidin-1-yl]-ethyl}-cyclohexyl)-2-((1S,3R)-3-methoxy-cyclopentyl)-acetamide], the Ki came to 11 nM in test [1] and 62 nM in test [2].
